From patent US20030187017A1, “Method for treating functional dyspepsia” (priority 2002, published 2003)

Assays:
healthy subjects = conditions: isobarometric and isovolumetric gastric distensions; cited from earlier work
FD patients [1] = experiment: 12-week double-blind placebo-matched clinical study in FD patients: adequate relief of upper abdominal pain or discomfort and FD symptoms; format: in vivo, human; conditions: for Average Weekly Adequate Relief of Pain and Discomfort, Adequate Relief Rates: 12 weeks
Procedure: Three hundred and twenty (320) ambulatory outpatient male and female FD patients at least 18 years of age who have chronic or recurrent abdominal pain or discomfort centered in the upper abdomen were randomised for study comprising twelve (12) weeks of treatment: eighty one (81) were randomised to treatment with placebo BID, seventy seven (77) to 0.5 mg BID alosetron, seventy nine (79) to 1 mg BID alosetron, and eighty three (83) to 2 mg BID alosetron. Study participants included patients who have been diagnosed with FD and patients with symptoms that fulfilled the modified Rome criteria for FD for at least 6 months. Study participants were screened for two weeks prior to the testing phase, to confirm symptoms of sufficient severity for participation in the study. During the two-week screening period, those patients enrolled from the U.S. underwent a 90-minute gastric emptying test to characterize their gastric motility. At the end of the two-week period, all study participants underwent an esophagogastroduodenoseope (EGD) to rule out organic disease and obtain a biopsy for H. pylori within one month of screening. The study was double-blinded and placebo-matched. Eligible subjects were randomized (1:1:1:1 ratio) to either alosetron 0.5 mg, 1 mg, 2 mg, or matched placebo twice daily for a 12-week treatment phase followed by a one-week follow-up period. Laboratory evaluations and adverse events were recorded at the 4, 8 and 12-week (or final) treatment visits. The study was designed to elicit measurements relating to efficacy and safety. The primary endpoint was adequate relief of FD (upper abdominal) pain or discomfort. Secondary endpoints included 1) changes in daily upper abdominal pain severity ratings, 2) proportion of pain free days, 3) changes in self-ratings of nausea, early satiety, bloating or distension, post-prandial fullness and burping or belching, 4) changes in quality of life (QOL) SF-36 scores, 5) changes in SCL-90R® scores, and 6) safety and tolerability with respect to the incidence of adverse events and changes in laboratory values. Daily and weekly symptom data were collected using an electronic touch-tone telephone based system described in J. Harding, et al., Gastroenterology 112:[…] (1997); and J. Harding, et al., Aliment Pharm. Ther. 11:1073-761997. Severity of abdominal pain, nausea and bloating were assessed on a daily basis using a five point scale (0=none; 1=very mild; 2=mild; 3=moderate; 4=severe). During screening, the pain severity score was required to average ≧1.5 for entry into the study. During the treatment and follow-up phases, subjects were asked weekly if they had obtained adequate relief of their upper abdominal pain or discomfort during the previous 7 days. Subjects also responded daily to yes/no questions assessing whether early satiety, post-prandial fullness and burping or belching were present. Analyses were by Intent-to-Treat (ITT) using the last observation carried forward (LOCF) method for handling missing data. The ITT population included all subjects randomized to study treatment. The primary efficacy endpoint was the adequate relief of upper abdominal pain or discomfort. The 12-week average rate of adequate relief was calculated as the sum of the number of responses of “yes” over the 12 weeks of the treatment phase divided by 12 and multiplied by 100 using the LOCF approach. The proportion of patients with weekly adequate relief of upper abdominal pain or discomfort was compared between treatment groups using the Mantel-Haenszel test stratified by geographical clusters of treatment centers. Secondary efficacy measures included subject self-rating of pain severity, frequency and the FD symptoms of nausea, bloating/distension, burping/belching, early satiety and post-prandial fullness. […]

FD patients [2] = experiment: Adverse events in the 12-week clinical study in FD patients; format: in vivo, human
Procedure: The study was double-blinded and placebo-matched. Eligible subjects were randomized (1:1:1:1 ratio) to either alosetron 0.5 mg, 1 mg, 2 mg, or matched placebo twice daily for a 12-week treatment phase followed by a one-week follow-up period. Laboratory evaluations and adverse events were recorded at the 4, 8 and 12-week (or final) treatment visits.
Adverse events were coded and group by body system. Adverse events occurring after randomization were summarized separately from adverse events occurring during the screening phase. For each body system and over all body systems, the frequency of subjects reporting at least one adverse event was calculated by treatment group. In addition, the number of subjects reporting at least one drug-related adverse event and the number of subjects reporting serious adverse events were summarized by treatment group. The four treatment groups were compared using a correlation chi-square test; pairwise comparisons were made with Fisher's exact test.

[3] = system: FD patients and healthy controls; conditions: cited from earlier work

Cc1[nH]cnc1CN1CCc2c(c3ccccc3n2C)C1=O [Alosetron, 2,3,4,5-tetrahydro-5-methyl-2-[(5-methyl-1H-imidazol-4-yl)methyl]-1H-pyrido[4,3-b]indol-1-one]
Visceral perception scores (healthy subjects): effect similar to placebo
Average Weekly Adequate Relief, % with Adequate Relief (FD patients [1]; Abnormal gastric emptying (n = 14-16), 0.5 mg BID): 51%
Average Weekly Adequate Relief, % with Adequate Relief (FD patients [1]; Abnormal gastric emptying (n = 14-16), 1 mg BID): 59%
Average Weekly Adequate Relief, % with Adequate Relief (FD patients [1]; Abnormal gastric emptying (n = 14-16), 2 mg BID): 45%
Abdominal pain and discomfort (FD patients [1]; FD patients, particularly female FD patients): substantially improved
Average Weekly Adequate Relief of Pain and Discomfort, Adequate Relief Rates (FD patients [1]; Females (n = 50-60), 0.5 mg BID): 49
Average Weekly Adequate Relief of Pain and Discomfort, Adequate Relief Rates (FD patients [1]; Females (n = 50-60), 1 mg BID): 54
Average Weekly Adequate Relief of Pain and Discomfort, Adequate Relief Rates (FD patients [1]; Females (n = 50-60), 2 mg BID): 43
Average Weekly Adequate Relief of Pain and Discomfort, Adequate Relief Rates (FD patients [1]; Males (n = 20-33), 0.5 mg BID): 39
Average Weekly Adequate Relief of Pain and Discomfort, Adequate Relief Rates (FD patients [1]; Males (n = 20-33), 1 mg BID): 43
Average Weekly Adequate Relief of Pain and Discomfort, Adequate Relief Rates (FD patients [1]; Males (n = 20-33), 2 mg BID): 40
Average Weekly Adequate Relief, % with Adequate Relief (FD patients [1]; Normal gastric emptying (n = 32-34), 0.5 mg BID): 60%
Average Weekly Adequate Relief, % with Adequate Relief (FD patients [1]; Normal gastric emptying (n = 32-34), 1 mg BID): 56%
Average Weekly Adequate Relief, % with Adequate Relief (FD patients [1]; Normal gastric emptying (n = 32-34), 2 mg BID): 43%
Improvement in adequate relief by gastric emptying status (FD patients [1]; all doses, subjects with normal and subjects with abnormal gastric emptying): Improvement was observed for all doses
Adequate relief rate as compared with placebo (FD patients [1]; each dose (0.5, 1, 2 mg BID)): greater adequate relief rate as compared with placebo
Nausea, early satiety and post-prandial fullness (FD patients [1]; female patients and patients with normal gastric emptying): substantially improved
Adverse Events: Any event (FD patients [2]; 0.5 mg BID): 68%
Adverse Events: GI event (FD patients [2]; 0.5 mg BID): 58%
Adverse Events: Neurology (FD patients [2]; 0.5 mg BID): 9%
Adverse Events: constipation (FD patients [2]; 0.5 mg BID): 45%
Adverse Events: Any event (FD patients [2]; 1 mg BID): 68%
Adverse Events: GI event (FD patients [2]; 1 mg BID): 52%
Adverse Events: Neurology (FD patients [2]; 1 mg BID): 4%
Adverse Events: constipation (FD patients [2]; 1 mg BID): 34%
Adverse Events: Any event (FD patients [2]; 2 mg BID): 75%
Adverse Events: GI event (FD patients [2]; 2 mg BID): 63%
Adverse Events: Neurology (FD patients [2]; 2 mg BID): 16%
Adverse Events: constipation (FD patients [2]; 2 mg BID): 46%
Tolerability (FD patients [2]; FD patients): well-tolerated

CN1[C@@H]2CC[C@H]1C[C@@H](OC(=O)c1c[nH]c3ccccc13)C2 [tropisetron]
Gastric accommodation, reflex relaxation or gastric sensitivity [3]: did not influence
